Test results published in patent publication US20110262442A1, “COMPOSITIONS FOR TREATING CNS DISORDERS” (Adenios, Inc., priority 2009, published 2011).

What was measured:
[1] = system: Experimental Autoimmune Encephalomyelitis (EAE); assay: MOG-induced EAE induction and daily scoring; type: in vivo, mice
Source text: Cd73^−/− mice have been previously described (Thompson et al., “Crucial Role for Ecto-5′-Nucleotidase (CD73) in Vascular Leakage During Hypoxia,” J. Exp. Med. 200:1395-1405 (2004), which is hereby incorporated by reference in its entirety) and have been backcrossed to C57BL/6 for 14 generations. Cd73 mice have no overt susceptibility to infection and appear normal based on the size and cellular composition of their lymphoid organs and their T and B cell responses in in vivo and in vitro assays (Thompson et al., “Crucial Role for Ecto-5′-Nucleotidase (CD73) in Vascular Leakage During Hypoxia,” J. Exp. Med. 200:1395-1405 (2004), which is hereby incorporated by reference in its entirety). C57BL/6 and tcrα^−/− mice on the C57BL/6 background were purchased from The Jackson Laboratories. Mice were bred and housed under specific pathogen-free conditions at Cornell University or the University of Turku. For adenosine receptor blockade experiments, mice were given drinking water supplemented with 0.6 g/L of caffeine (Sigma) or 2 mg/kg SCH58261 (1 mg/kg s.c. and 1 mg/kg i.p.) in DMSO (45% vol. in PBS) or 45% DMSO alone starting 1 day before EAE induction and continuing throughout the experiment. All procedures performed on mice were approved by the relevant animal review committee.
EAE was induced by subjecting mice to the myelin oligodendrocyte glycoprotein (“MOG”) EAE-inducing regimen as described in Swanborg, “Experimental Autoimmune Encephalomyelitis in Rodents as a Model for Human Demyelinating Disease,” Clin. Immunol. Immunopathol. 77:4-13 (1995) and Bynoe et al., “Epicutaneous Immunization with Autoantigenic Peptides Induces T Suppressor Cells that Prevent Experimental Allergic Encephalomyelitis,” Immunity 19:317-328 (2003), which are hereby incorporated by reference in their entirety. Briefly, a 1:1 emulsion of MOG35-55 peptide (3 mg/ml in PBS) (Invitrogen) and complete Freund's adjuvant (CFA, Sigma) was injected subcutaneously (50 μl) into each flank. Pertussis toxin (PTX, 20 ng) (Biological Laboratories Inc.) was given intravenously (200 μl in PBS) at the time of immunization and again 2 days later. Mice were scored daily for EAE based on disease symptom severity; 0=no disease, 0.5-1=weak/limp tail, 2=limp tail and partial hind limb paralysis, 3=total hind limb paralysis, 4=both hind limb and fore limb paralysis, 5=death. Mice with a score of 4 were euthanized.

blood brain barrier [2] = assay: FITC-Dextran extravasation through the brain endothelium (brain sections); type: in vivo, mice; settings: 10,000 MW FITC Dextran IP, 30 minutes
Procedure: In order to examine the effects of caffeine, a general adenosine receptor antagonist, on blood brain barrier permeability, mice were fed caffeine for several days and then injected with FITC Dextran, commonly used to assess endothelial permeability.
More particularly, mice were fed 0.6 g/l caffeine (Sigma, St. Louis, Mo.) in water or regular water ad lib for five days. Mice were injected IP with FITC Dextran (10,000 MW, Molecular Probes, Eugene, Oreg.) and after 30 minutes mice were perfused with ice cold PBS via the left ventricle. Brains were removed and snap frozen in OCT (Tissue Tek, Torrance, Calif.) and stored at −80° C. until sectioning. Tissue sections (5 μm) were stained with hematoxylin for light microscopy and with DAPI for a fluorescent counterstain.

hCMEC/D3 cells [3] = assay: cAMP levels in human brain endothelial cells (cAMP Screen kit); type: cell-based; settings: 15 minutes treatment, various concentrations (CCPA: at high levels)
Procedure: Adenosine receptor activation regulates cAMP levels in cells. In order to determine the sensitivity of human brain endothelial cells to adenosine receptor induced cAMP regulation, human brain endothelial cells were cultured with adenosine receptor agonists at various concentrations, followed by cAMP level analysis, as shown in FIG. 13.
HCMECD3 cells were grown to confluencey on 24 well plates. As adenosine receptor (“AR”) stimulation is known to influence cAMP levels, cells were treated with or without various concentrations of NECA (general AR agonist), CCPA (A1 AR agonist), CGS 21860 (A2A AR agonist), DMSO vehicle, or Forksolin (induces cAMP). After 15 minutes, lysis buffer was added and the cells were frozen at −80 C to stop the reaction. Duplicate samples were used for each condition. cAMP levels were assayed using a cAMP Screen kit (Applied Biosystems, Foster City, Calif.).

hCMEC/D3 cells [4] = assay: Jurkat cell migration across hCMEC/D3-seeded Transwell (in vitro BBB); type: cell-based, human; settings: hCMEC/D3 on Transwell, migrated cells counted after 24 hours
Source text: The blood brain barrier (“BBB”) is comprised of endothelial cells. During late stages of EAE, lymphocytes are known to cross the BBB. In order to determine if adenosine receptor stimulation of brain endothelial cells could promote lymphocyte migration through the BBB, an in vitro BBB was established. The human brain endothelial cell line hCMEC/D3 (Weksler et al., “Blood-brain Barrier-specific Properties of a Human Adult Brain Endothelial Cell Line,” […] (2005); Poller et al., “The Human Brain Endothelial Cell Line hCMEC/D3 as a Human Blood-brain Barrier Model for Drug Transport Studies,” J. Neurochem. 107(5):1358-1368 (2008), which are hereby incorporated by reference in their entirety) was obtained, which has been previously described as having BBB properties.
hCMEC/D3 cells were seeded onto Transwell and allowed to grow to confluencey. 2×10^6 Jurkat cells were added to the upper chamber with or without NECA (general adenosine receptor [AR] agonist), CCPA (A1 AR agonist), CGS 21860 (A2A AR agonist), or DMSO vehicle. After 24 hours, migrated cells in the lower chamber were counted. Values are relative to the number of cells that migrate through non-HCMECD3 seeded transwells.

brain endothelial cells = assay: Actin stress fiber induction in brain endothelial cells; type: cell-based
Procedure: To test this brain endothelial cells were treated with either CCPA (to agonize A1 adenosine receptors) or […] (to agonize the A2A adenosine receptor).

blood brain barrier [5] = assay: Fluorimetric analysis of labeled dextrans in brain after i.v. drug administration; type: in vivo, mice; settings: wild type mice, 10,000 Da FITC-dextran; for dextran entry into the CNS compared to NECA administration: 3 h after i.v. administration; for dextran entry into the CNS compared to vehicle treatment: 3 h after i.v. co-administration
Procedure: C57BL/6 mice from Jackson Laboratories were used as wild types. All mice used were aged 7-9 weeks and weighed between 20-25 g. All rats were aged 8 weeks and weighed 200-220 g. Mice and rats were bred and housed under specific pathogen-free conditions.
The adenosine receptor agonists NECA, CCPA and CGS 21860 were purchased from Tocris. Each was dissolved in DMSO then diluted in PBS to the desired concentration; in most cases final DMSO concentrations were <0.5% (vol/vol). For vehicle controls, DMSO was diluted in PBS to the same concentration. Dehydrated dextrans labeled with either FITC or Texas Red were purchased from Invitrogen and re-suspended in PBS to 10 mg ml^−1. All experiments involving dextran injection used 0.5 mg dextran in PBS. In experiments where drug and dextran were injected concomitantly, 0.5 mg of dextran was mixed with the drug to the desired concentration in a final volume of 200 μl. All injections were retro-orbital i.v. with a 27-gauge needle. In the SCH 58261 experiment, groups were administered vehicle or SCH 58261 for 4 d. Vehicle/drug and dextrans were injected on day 5 and tissues were collected 3 h after vehicle/drug administration. In Lexiscan experiments, Lexiscan was administered i.v. with 3 injections, 5 min apart and tissues were collected at 15 min unless otherwise indicated.
In dose-response experiments and experiments with the A1 AR and A2A AR knock-out mice, drugs and dextrans were injected concomitantly. After 3 h, the mice were anesthetized with ketamine/xylazine and subjected to a nose cone containing isoflurane. They were perfused with 25-50 ml ice-cold PBS through the left ventricle of the heart then decapitated. Their brains were removed, weighed and frozen for later analysis.
Ice-cold 50 mM Tris-Cl (pH 7.6) was added to frozen brains (100 μl per 100 mg brain) and were to thawed on ice. They were homogenized manually with ˜45 strokes of a dounce homogenizer in plastic 1.5 ml microfuge tubes then spun at 16.1 g in a microfuge for 30 min at room temperature (rt). The supernatants were transferred to new tubes and an equal volume absolute methanol was added. The samples were spun again at 16.1 g for 30 min at rt. Supernatant (200 μl) was transferred to a Corning costar 96 well black polystyrene assay plate (clear bottom). Additionally, a series of standards containing 0.001-10 μg ml^−1 dextran in 50% Tris-Cl/50% absolute methanol (vol/vol) was added to each plate. Absolute concentrations of dextrans were derived from these standard curves. Fluorimetric analysis was performed on a BioTek Synergy 4. FITC-dextran was detected at 488/519 (excitation/emission) and Texas Red-dextran was detected at 592/618.

Z310 cells = assay: Jurkat cell migration across Z310-seeded Transwell (choroid plexus); type: cell-based, murine; settings: Z310 cells on Transwell, migrated cells counted after 24 hours, n=1
Procedure: The choroid plexus (“CP”) controls lymphocyte migration into the CNS. The CP expresses the A1 and A2A adenosine receptors. EAE is prevented in mice when A2A adenosine receptor activity is blocked. EAE is enhanced when the A1 adenosine receptor is missing. It was hypothesized that A2A adenosine receptor activation promotes lymphocyte migration across the CP. Z310 cells are a murine choroid plexus cell line. To test the hypothesis, Transwell membranes were seeded with Z310 cells and allowed to grow to confluencey. 2×10^6 Jurkat cells were added to the upper chamber with or with out NECA (n=1, general AR agonist), CCPA (n=1, AAR agonist), CGS 21860 (n=1, A2AAR agonist), or DMSO vehicle (n=1). After 24 hours, migrated cells in the lower chamber were counted. Values are relative to the number of cells that migrate through non-Z310 seeded transwells and the results are shown in FIG. 12.

With `Cn1c(=O)c2c(ncn2C)n(C)c1=O` [caffeine] the EAE development ([1]; cd73−/− mice, caffeine 0.6 g/L in drinking water) was “did not develop EAE”, the EAE development ([1]; wild type mice, caffeine 0.6 g/L in drinking water from 1 day prior to and throughout EAE experiment) was “dramatically protected against EAE development” and the “FITC-Dextran extravasation across the blood brain barrier” value (blood brain barrier [2]; CD73−/− mice fed 0.6 g/l caffeine for five days, compared with wild type mice) was “less FITC-Dextran extravasation”. The “FITC-Dextran extravasation across the blood brain barrier” value (blood brain barrier [2]; wild type mice (caffeine feeding experiment), compared with CD73−/− mice) was “more FITC-dextran extravasation”.

In the case of `OC[C@H]1O[C@@H](n2cnc3c(NC4CCCC4)nc(Cl)nc32)[C@H](O)[C@@H]1O` [CCPA, 2-chloro-N^6-cyclopentyladenosine], the cAMP levels (hCMEC/D3 cells [3]) is reported as “increased cAMP levels”, the “lymphocyte (Jurkat) migration across the in vitro BBB” value (hCMEC/D3 cells [4]) is reported as “induced lymphocyte migration at high levels” and the “actin stress fibers compared to vehicle alone” value (brain endothelial cells) is reported as “induction of actin stress fibers was observed”. For the same molecule, the “dextran entry into the CNS compared to NECA administration” value (blood brain barrier [5]) was “significantly lower than that observed after NECA administration”, the “dextran entry into the CNS compared to vehicle treatment” value (blood brain barrier [5]) was “increased dextran entry into the CNS” and the “lymphocyte (Jurkat) migration across the CP” value (Z310 cells) was “induced lymphocyte migration at high levels”.

For `CCNC(=O)[C@H]1O[C@@H](n2cnc3c(N)nc(NCCc4ccc(CCC(=O)O)cc4)nc32)[C@H](O)[C@@H]1O` [CGS 21680, 4-[2-[[6-Amino-9-(N-ethyl-b-D-ribofuranuronamidosyl)-9H-purin-2-yl]amino]ethyl]benzenepropanoic acid], the cAMP levels (hCMEC/D3 cells [3]) was “slightly increased cAMP levels”, the “lymphocyte (Jurkat) migration across the in vitro BBB” value (hCMEC/D3 cells [4]) was “promoted lymphocyte migration across the in vitro BBB when used at a lower concentration” and the “dextran entry into the CNS compared to NECA administration” value (blood brain barrier [5]) was “significantly lower than that observed after NECA administration”. For the same molecule, the “dextran entry into the CNS compared to vehicle treatment” value (blood brain barrier [5]) was “increased dextran entry into the CNS” and the “lymphocyte (Jurkat) migration across the CP” value (Z310 cells) was “promoted lymphocyte migration across the CP”.

B1: PEG-ADA: PEGylated adenosine deaminase (protein, UniProt P56658 2-363, looked up)
Adenosine deaminase: AQTPAFNKPKVELHVHLDGAIKPETILYYGRKRGIALPADTPEELQNIIGMDKPLSLPEFLAKFDYYMPAIAGCREAVKRIAYEFVEMKAKDGVVYVEVRYSPHLLANSKVEPIPWNQAEGDLTPDEVVSLVNQGLQEGERDFGVKVRSILCCMRHQPSWSSEVVELCKKYREQTVVAIDLAGDETIEGSSLFPGHVKAYAEAVKSGVHRTVHAGEVGSANVVKEAVDTLKTERLGHGYHTLEDATLYNRLRQENMHFEVCPWSSYLTGAWKPDTEHPVVRFKNDQVNYSLNTDDPLIFKSTLDTDYQMTKNEMGFTEEEFKRLNINAAKSSFLPEDEKKELLDLLYKAYGMPSPASAEQCL
modifications: PEGylated
notes: PEGylated adenosine deaminase
For B1, the “development of EAE (mean EAE score)” value ([1]; wild-type mice, 15 units/kg body weight i.p. every 4 days, vs PBS vehicle) was “inhibits the development of EAE”.
